According to ChEMBL document CHEMBL1201862, “PubChem BioAssay data set” (2004):
Calls of active or inactive are those of the source. Cut-off read from the data, not from the text of the source, for most assays here: actives have a measured EC50 and inactives only a lower limit.

How the values were obtained:
[1] = biological target: T1, Heat shock factor protein 1 (Mus musculus, UniProt P38532); assay: HSF1 potentiators in luciferase reporter cells, confirmation, cell-based, NIH3T3, luminescence, dose retest (AID 435004); assay type: functional;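 note: stress induced by proteasome inhibitor MG132 added 30 min after compound; luciferase reporter driven by HSF1 response element in NIH3T3 cells; actives raise luminescence as potentiators of the MG132 stress response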
T1 sequence (P38532 whole entry): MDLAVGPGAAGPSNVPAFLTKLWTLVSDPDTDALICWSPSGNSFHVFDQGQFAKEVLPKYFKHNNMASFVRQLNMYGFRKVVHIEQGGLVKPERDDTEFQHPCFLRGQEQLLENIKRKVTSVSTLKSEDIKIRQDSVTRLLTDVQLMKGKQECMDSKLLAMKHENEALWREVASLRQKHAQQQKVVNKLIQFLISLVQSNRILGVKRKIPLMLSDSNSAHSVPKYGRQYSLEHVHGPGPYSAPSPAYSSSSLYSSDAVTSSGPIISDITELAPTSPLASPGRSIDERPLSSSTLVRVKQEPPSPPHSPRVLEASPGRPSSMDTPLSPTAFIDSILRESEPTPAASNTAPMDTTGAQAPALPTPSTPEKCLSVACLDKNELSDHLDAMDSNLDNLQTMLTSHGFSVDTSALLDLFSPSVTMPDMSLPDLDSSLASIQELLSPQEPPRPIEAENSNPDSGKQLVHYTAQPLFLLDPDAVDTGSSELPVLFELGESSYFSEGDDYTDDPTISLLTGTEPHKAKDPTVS

[2] = Luminescence Cell-Based Dose Confirmation HTS to Identify Activators of 5'UTR Stem-Loop Driven Alpha-Synuclein mRNA Translation in H4 Neuroglioblastoma Cells. [Related pubchem assays: 1829 (Project Summary), 1814 (Primary HTS)]; assay type: functional
[3] = Luminescence Cell-Based Dose Response HTS to Identify Activators of Luciferase Translation or Activity in H4 […] Cells. [Related pubchem assays: 1829 (Project Summary), 1814 (Primary HTS)]; assay type: functional
H4 = assay: Luminescence Cell-Based Dose Response HTS to Identify Activators of 5'UTR Stem-Loop Driven Prion Protein mRNA Translation in H4 Neuroglioblastoma Cells. [Related pubchem assays: 1829 (Project Summary), 1814 (Primary HTS)]; assay type: functional; settings: Homo sapiens
[4] = biological target: T2, Corticotropin-releasing factor receptor 2/Corticotropin-releasing factor-binding protein (Homo sapiens, UniProt P24387+Q13324); assay: Dose Response confirmation of uHTS hits for small molecule antagonists of the CRF-binding protein and CRF-R2 receptor complex.; assay type: functional; settings: read-out: IC50_Mean
T2 sequence (Q13324 whole entry): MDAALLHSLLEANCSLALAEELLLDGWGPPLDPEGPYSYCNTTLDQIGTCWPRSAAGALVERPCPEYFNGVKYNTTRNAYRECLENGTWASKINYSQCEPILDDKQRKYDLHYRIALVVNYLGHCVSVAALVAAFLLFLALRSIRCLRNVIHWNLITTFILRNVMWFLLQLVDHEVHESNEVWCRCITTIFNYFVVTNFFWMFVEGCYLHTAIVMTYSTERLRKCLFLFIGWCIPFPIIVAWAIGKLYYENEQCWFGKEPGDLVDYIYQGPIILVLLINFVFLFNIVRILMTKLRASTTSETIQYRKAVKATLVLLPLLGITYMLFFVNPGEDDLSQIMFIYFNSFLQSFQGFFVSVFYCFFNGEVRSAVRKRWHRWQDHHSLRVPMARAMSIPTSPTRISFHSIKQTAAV
T2 sequence (P24387 whole entry): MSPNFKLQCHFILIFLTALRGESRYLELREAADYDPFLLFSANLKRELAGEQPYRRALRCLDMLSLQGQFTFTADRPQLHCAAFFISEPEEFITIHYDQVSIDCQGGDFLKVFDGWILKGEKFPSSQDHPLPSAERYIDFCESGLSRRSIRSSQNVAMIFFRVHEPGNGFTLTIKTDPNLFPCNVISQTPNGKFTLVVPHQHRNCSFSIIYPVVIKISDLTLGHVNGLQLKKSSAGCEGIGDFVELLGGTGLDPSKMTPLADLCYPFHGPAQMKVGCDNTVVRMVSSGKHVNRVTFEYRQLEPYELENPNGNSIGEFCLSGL

[5] = biological target: T2, Corticotropin-releasing factor receptor 2/Corticotropin-releasing factor-binding protein; assay: activators of CRF receptor 2 with binding protein – uHTS hits, confirmation (AID 602473); assay type: functional; settings: read-out: EC50_Mean
Cytochrome P450 2D6 = Cytochrome P450 2D6 (Homo sapiens, UniProt P10635);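 note: CYP2D6 member of a cytochrome P450 panel assay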
Cytochrome P450 3A4 = Cytochrome P450 3A4 (Homo sapiens, UniProt P08684);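 note: CYP3A4 tested as one member of a cytochrome P450 panel screen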
Cytochrome P450 2C9 = Cytochrome P450 2C9 (Homo sapiens, UniProt P11712)
[6] = biological target: Luciferin 4-monooxygenase (Photinus pyralis, UniProt P08659); assay: firefly luciferase enzyme inhibitors, dose response, biochemical, luminescence (AID 1891)
[7] = Luminescence Cell-Based Dose Confirmation HTS to Identify Inhibitors of Platelet Dense Granule Release. [Related pubchem assays: 1663 (Primary HTS), 1678 (Summary of Project)]; assay type: functional
[8] = biological target: T3, RNA-binding protein pos-1 (Caenorhabditis elegans, UniProt G5EF15); assay: inhibitors of POS-1/mex-3 RNA binding, dose response, biochemical, fluorescence polarization (AID 1964);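 note: purified POS-1 fused to maltose binding protein made in E. coli; potency of compounds blocking POS-1 binding to fluorescent RNA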
T3 sequence (G5EF15 whole entry): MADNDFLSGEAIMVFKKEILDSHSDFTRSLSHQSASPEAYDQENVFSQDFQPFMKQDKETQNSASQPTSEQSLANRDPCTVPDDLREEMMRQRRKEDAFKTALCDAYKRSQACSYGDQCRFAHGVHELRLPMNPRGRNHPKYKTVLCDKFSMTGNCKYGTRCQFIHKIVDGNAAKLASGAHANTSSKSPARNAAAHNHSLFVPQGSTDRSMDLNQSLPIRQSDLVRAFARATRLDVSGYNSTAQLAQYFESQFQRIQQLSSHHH

Luciferin 4-monooxygenase, sequence (P08659 whole entry): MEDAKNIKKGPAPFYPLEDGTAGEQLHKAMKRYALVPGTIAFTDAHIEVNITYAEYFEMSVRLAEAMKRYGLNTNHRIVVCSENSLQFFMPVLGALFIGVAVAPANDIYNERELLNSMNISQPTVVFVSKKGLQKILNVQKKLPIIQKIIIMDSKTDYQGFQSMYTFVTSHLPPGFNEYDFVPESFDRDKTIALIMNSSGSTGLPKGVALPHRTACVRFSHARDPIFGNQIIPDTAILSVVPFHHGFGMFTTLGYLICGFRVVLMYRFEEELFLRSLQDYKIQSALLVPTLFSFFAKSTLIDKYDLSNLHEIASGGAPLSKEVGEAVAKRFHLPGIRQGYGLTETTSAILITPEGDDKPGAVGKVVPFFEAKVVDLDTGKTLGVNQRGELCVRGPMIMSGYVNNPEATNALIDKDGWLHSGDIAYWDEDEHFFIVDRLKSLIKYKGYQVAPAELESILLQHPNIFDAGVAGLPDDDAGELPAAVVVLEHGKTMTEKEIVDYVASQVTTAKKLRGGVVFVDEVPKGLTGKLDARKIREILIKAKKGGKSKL
Cytochrome P450 2D6, sequence (P10635 whole entry): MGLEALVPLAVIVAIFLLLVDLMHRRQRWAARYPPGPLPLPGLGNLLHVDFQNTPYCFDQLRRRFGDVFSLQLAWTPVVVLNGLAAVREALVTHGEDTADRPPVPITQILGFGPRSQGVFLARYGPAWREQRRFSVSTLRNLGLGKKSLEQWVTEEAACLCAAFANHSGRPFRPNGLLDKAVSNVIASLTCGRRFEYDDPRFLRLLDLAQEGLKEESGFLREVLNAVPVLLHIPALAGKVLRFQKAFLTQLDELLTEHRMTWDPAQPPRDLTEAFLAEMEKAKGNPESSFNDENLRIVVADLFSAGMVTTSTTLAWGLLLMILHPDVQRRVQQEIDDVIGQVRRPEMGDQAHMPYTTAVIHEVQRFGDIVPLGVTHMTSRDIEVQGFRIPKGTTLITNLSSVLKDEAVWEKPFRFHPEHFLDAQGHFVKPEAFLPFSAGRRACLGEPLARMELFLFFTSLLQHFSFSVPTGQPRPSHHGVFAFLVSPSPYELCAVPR
Cytochrome P450 2C9, sequence (P11712 whole entry): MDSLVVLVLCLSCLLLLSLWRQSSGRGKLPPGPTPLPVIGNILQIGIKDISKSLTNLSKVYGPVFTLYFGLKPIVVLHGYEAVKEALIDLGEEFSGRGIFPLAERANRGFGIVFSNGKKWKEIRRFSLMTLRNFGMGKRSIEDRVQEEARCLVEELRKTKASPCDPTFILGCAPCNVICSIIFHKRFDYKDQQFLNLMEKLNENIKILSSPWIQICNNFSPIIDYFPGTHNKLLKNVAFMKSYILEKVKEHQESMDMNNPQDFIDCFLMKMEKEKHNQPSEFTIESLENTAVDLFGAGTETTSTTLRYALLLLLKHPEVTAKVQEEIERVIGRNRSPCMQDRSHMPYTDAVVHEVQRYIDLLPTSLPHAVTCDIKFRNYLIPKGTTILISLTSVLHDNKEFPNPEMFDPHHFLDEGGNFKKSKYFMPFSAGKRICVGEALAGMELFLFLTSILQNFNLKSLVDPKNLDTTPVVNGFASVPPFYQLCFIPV
Cytochrome P450 3A4, sequence (P08684 whole entry): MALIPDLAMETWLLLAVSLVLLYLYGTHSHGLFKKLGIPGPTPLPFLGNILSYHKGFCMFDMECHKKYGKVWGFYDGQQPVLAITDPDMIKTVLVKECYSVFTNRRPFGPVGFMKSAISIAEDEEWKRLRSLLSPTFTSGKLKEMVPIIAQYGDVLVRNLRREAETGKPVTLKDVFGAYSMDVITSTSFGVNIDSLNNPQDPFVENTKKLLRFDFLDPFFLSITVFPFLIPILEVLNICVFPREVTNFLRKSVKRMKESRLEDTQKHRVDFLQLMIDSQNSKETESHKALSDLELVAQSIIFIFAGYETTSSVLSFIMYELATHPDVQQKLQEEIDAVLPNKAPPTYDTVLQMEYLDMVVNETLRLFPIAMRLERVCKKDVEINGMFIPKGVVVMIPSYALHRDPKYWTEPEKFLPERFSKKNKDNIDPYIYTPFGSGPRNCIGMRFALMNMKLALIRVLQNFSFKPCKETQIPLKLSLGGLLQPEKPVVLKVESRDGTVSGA

COc1cccc(OCc2ccc(Cl)cc2)c1C#N
EC50 [1]: > 260 µM (inactive)

CC(C)(C)c1ccc(C(=O)NCC(=O)OCC(=O)Nc2nc(-c3ccc(F)cc3)cs2)cc1
EC50 [2]: 19.9 µM (active) | EC50 [3]: > 120 µM (not active) | EC50 (H4): 13.5 µM (active)

COc1ccc(-c2nn(-c3ccccc3)cc2/C=C(\C#N)S(=O)(=O)c2ccccc2)cc1OC
IC50 [4]: > 47.1 µM (inactive) | EC50 [5]: > 53 µM (inactive)

CC1=CC(C)(C)N=C(S)N1c1cccc(C)c1
AC50 (Cytochrome P450 2D6): 6.31 µM (inconclusive) | EC50 [1]: > 260 µM (inactive) | AC50 (Cytochrome P450 3A4): 25.1 µM (inconclusive) | AC50 (Cytochrome P450 2C9): 3.55 µM (inconclusive)

CC(C)(C)n1ncc2c(=O)n(CC(=O)c3ccc(Cl)cc3)cnc21
EC50 [2]: 0.168 µM (active) | EC50 [3]: 0.115 µM (active)

COc1cccc2oc3cc(C#Cc4ccccn4)ccc3c(=O)c12
EC50 [6]: 23.1 µM (active) | EC50 [7]: > 112 µM (not active)

Cc1cc(C)cc(N2C(=O)NC(=O)/C(=C\c3cccn3-c3ccc(Cl)cc3)C2=O)c1
EC50 [8]: 84.5 µM (active)

CC(c1nccs1)N(C)C(=O)c1cn(Cc2cccc3ccccc23)nn1 (centres undefined)
EC50 [2]: 13.2 µM (active) | EC50 [3]: 18 µM (active) | EC50 (H4): 47.3 µM (active)

COCCN1CCN(C(=O)c2cc(COc3cc(C)ccc3C)on2)CC1
IC50 [4]: > 47.1 µM (inactive) | EC50 [5]: > 53 µM (inactive)

CC(C)N1CC(C(=O)Nc2ccc(Br)c(Cl)c2)CC1=O (centres undefined)
IC50 [4]: > 47.1 µM (inactive) | EC50 [5]: > 53 µM (inactive)

Cc1nc2sccn2c(=O)c1S(=O)(=O)NC(C)c1ccccc1 (centres undefined)
EC50 [6]: > 112 µM (not active) | EC50 [7]: > 112 µM (not active)

CS(=O)(=O)Nc1cccc(C2=NN(C(=O)CCCC(=O)O)C(c3cccs3)C2)c1 (centres undefined)
EC50 [1]: > 260 µM (inactive)

O=C(OCc1csc(-c2ccccc2)n1)c1cccs1
EC50 [1]: > 260 µM (inactive)

Cc1ccc(Cn2c(SCC(=O)NCC3CCCO3)nc3ccsc3c2=O)cc1 (centres undefined)
IC50 [4]: > 47.1 µM (inactive) | EC50 [5]: > 53 µM (inactive)

COc1ccc([N+]2=C3CCc4ccccc4N3CC2(C)O)cc1 (centres undefined)
EC50 [2]: > 120 µM (not active) | EC50 [3]: > 120 µM (not active) | EC50 (H4): > 120 µM (not active)

CSC1=NC(C)(C)CC2(C)Nc3ccccc3N12 (centres undefined)
EC50 [2]: > 120 µM (not active) | EC50 [3]: > 120 µM (not active) | EC50 (H4): > 120 µM (not active)

CCC(C)(C)n1nnnc1C(c1cccc(C#N)c1)N1CCN(c2cccc(C)c2C)CC1 (centres undefined)
IC50 [4]: > 47.1 µM (inactive) | EC50 [5]: > 53 µM (inactive)

O=C(CSc1nc(-c2ccccc2)cs1)NCCN1C(=O)CSC1=O
EC50 [2]: 6.7 µM (active) | EC50 [3]: 31.1 µM (active) | EC50 (H4): 17.9 µM (active)

Cn1c(=O)oc2cc(S(=O)(=O)NC3CCN(Cc4ccccc4)CC3)ccc21
EC50 [6]: > 112 µM (not active) | EC50 [7]: > 112 µM (not active)

O=C(Nc1ccc(C(=O)N2CCCC2)cc1)c1ccccc1F
IC50 [4]: > 47.1 µM (inactive) | EC50 [5]: > 53 µM (inactive)

O=C1/C(=C\c2ccc(Br)o2)Cc2ccccc21
EC50 [1]: 27.6 µM (active)

CN(C)c1nc(NCc2ccccc2)nc(SCC(=O)Nc2ccccc2Cl)n1
IC50 [4]: > 47.1 µM (inactive) | EC50 [5]: > 53 µM (inactive)

O=C(CCNC(=O)C1CCN(S(=O)(=O)c2ccccc2)CC1)NCc1ccc(Cl)c(Cl)c1
EC50 [6]: > 112 µM (not active) | EC50 [7]: > 112 µM (not active)

C=CCn1c(=O)c2ccccc2n2c(SCC(=O)Nc3sc(C)c(CC)c3C(=O)OCC)nnc12
EC50 [1]: > 260 µM (inactive)

COc1ccc(OC)c(NC(=O)c2ccccc2NS(=O)(=O)c2cccc3cccnc23)c1
IC50 [4]: < 0.368 µM (active) | EC50 [5]: > 53 µM (inactive)

Cc1cc(C)n(Cc2cccc(F)c2)c(=O)c1C#N
EC50 [6]: > 112 µM (not active) | EC50 [7]: > 112 µM (not active)

COc1ccc(C2CC(c3ccccc3OC(=O)/C=C/c3ccccc3)=NN2C(C)=O)cc1 (centres undefined)
EC50 [2]: 14 µM (active) | EC50 [3]: 18.5 µM (active) | EC50 (H4): 36.4 µM (active)

O=C(O)C1C2C=CC(C2)C1C(=O)NCc1ccccn1 (centres undefined)
EC50 [6]: > 112 µM (not active) | EC50 [7]: > 112 µM (not active)

C=CCn1c(SCC(=O)Nc2sc3c(c2C#N)CCC3)nnc1C1COc2ccccc2O1 (centres undefined)
EC50 [6]: 39.7 µM (active) | EC50 [7]: > 112 µM (not active)

CCOc1ccc(C(=O)Nc2nnc(S(=O)(=O)N(C)Cc3ccco3)s2)cc1
EC50 [2]: 15.1 µM (active) | EC50 [3]: 0.162 µM (inconclusive) | EC50 (H4): 6.04 µM (active)

CCOC(=O)COc1cccc2c(=O)n(CC(=O)NCCc3ccccc3)ccc12
EC50 [2]: > 120 µM (not active) | EC50 [3]: > 120 µM (not active) | EC50 (H4): 19.5 µM (active)

CCC1CCCCN1CCCNC(=O)c1cn(C)c2ccc(S(=O)(=O)N(C)C3CCCCC3)cc2c1=O (centres undefined)
IC50 [4]: > 47.1 µM (inactive) | EC50 [5]: > 53 µM (inactive)

NC(=O)COC(=O)c1cccc(S(=O)(=O)N2CCCCC2)c1
IC50 [4]: > 47.1 µM (inactive) | EC50 [5]: > 53 µM (inactive)

Cc1ccsc1/C=N\NC(=O)CCc1c(C)n[nH]c1C
IC50 [4]: > 47.1 µM (inactive) | EC50 [5]: > 53 µM (inactive)

COc1ccc(-c2[nH]ncc2/C=N/NC(=O)c2ccc(Br)cc2)c(OC)c1
EC50 [6]: > 112 µM (not active) | EC50 [7]: 16.1 µM (active)

N#Cc1ccc(/C=N/NC(=O)CCc2ccc(S(=O)(=O)N3CCOCC3)cc2)cc1
EC50 [6]: > 112 µM (not active) | EC50 [7]: > 112 µM (not active)

O=C(O)c1ccc(/C=N/N2CCN(c3ccccc3)CC2)cc1
EC50 [2]: 0.687 µM (active) | EC50 [3]: 19.6 µM (active) | EC50 (H4): > 120 µM (not active)
